Legend:
Assay type in all cases: in vivo
rice (Oryza sativa) = test: Test C flooded paddy test: rice; conditions: scale 0 to 100 (0 no effect, 100 complete control)
Method in brief: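 Rating: visual, 0–100 (100 = complete control), versus untreated controls after 13 to 15 greenhouse days. Treatment went into paddy water held at 3 cm over the soil, on plants grown to two leaves.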

[1] = tested on: barnyardgrass (Echinochloa crus-galli); test: Test A pre-/postemergence: barnyardgrass; conditions: for Barnyardgrass plant response rating: Postemergence; for Plant response rating, Barnyardgrass: Preemergence
Method in brief: (§1)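 Rating scale 0–100 (100 = complete control), visual, ~10 days after application in the greenhouse. Applications: preemergence directed soil spray; postemergence at 1–2 leaves.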

[2] = tested on: ducksalad (Heteranthera limosa); test: Test C flooded paddy test: ducksalad; conditions: scale 0 to 100 (0 no effect, 100 complete control)
Excerpt: (§2) Plant species in the flooded paddy test consisted of rice (Oryza sativa), sedge, umbrella (small-flower umbrella sedge, Cyperus difformis), ducksalad (Heteranthera limosa) and barnyardgrass (Echinochloa crus-galli) grown to the 2-leaf stage for testing. At time of treatment, test pots were flooded to 3 cm above the soil surface, treated by application of test compounds directly to the paddy water, and then maintained at that water depth for the duration of the test.
(§3) Treated plants and controls were maintained in a greenhouse for 13 to 15 days, after which time all species were compared to controls and visually evaluated. Plant response ratings, summarized in Table C, are based on a scale of 0 to 100 where 0 is no effect and 100 is complete control. A dash (-) response means no test result.

[3] = tested on: crabgrass, large (large crabgrass, Digitaria sanguinalis); test: Test A pre-/postemergence: crabgrass, large; conditions: for Crabgrass, Large plant response rating: Postemergence; for Plant response rating, Crabgrass, Large: Preemergence
Method in brief: as §1

[4] = tested on: barnyardgrass (Echinochloa crus-galli); test: Test C flooded paddy test: barnyardgrass; conditions: scale 0 to 100 (0 no effect, 100 complete control)
Excerpt: as §2, §3

[5] = tested on: sedge, umbrella (small-flower umbrella sedge, Cyperus difformis); test: Test C flooded paddy test: sedge, umbrella; conditions: scale 0 to 100 (0 no effect, 100 complete control)
Excerpt: as §2, §3

[6] = tested on: velvetleaf (Abutilon theophrasti); test: Test A pre-/postemergence: velvetleaf; conditions: for Velvetleaf plant response rating: Postemergence; for Plant response rating, Velvetleaf: Preemergence
Method in brief: as §1

[7] = tested on: foxtail, giant (giant foxtail, Setaria faberii); test: Test A pre-/postemergence: foxtail, giant; conditions: for Foxtail, Giant plant response rating: Postemergence; for Plant response rating, Foxtail, Giant: Preemergence
Method in brief: as §1

[8] = tested on: morningglory (Ipomoea spp.); test: Test A pre-/postemergence: morningglory; conditions: for Morningglory plant response rating: Postemergence; for Plant response rating, Morningglory: Preemergence
Method in brief: as §1

[9] = tested on: pigweed (Amaranthus retroflexus); test: Test A pre-/postemergence: pigweed; conditions: for Pigweed plant response rating: Postemergence; for Plant response rating, Pigweed: Preemergence
Method in brief: as §1

[10] = tested on: wheat (Triticum aestivum); test: Test A pre-/postemergence: wheat; conditions: for Wheat plant response rating: Postemergence; for Plant response rating, Wheat: Preemergence
Method in brief: as §1

corn (Zea mays) = test: Test A pre-/postemergence: corn; conditions: for Corn plant response rating: Postemergence; for Plant response rating, Corn: Preemergence
Method in brief: as §1

[11] = Flood (flooded paddy test), 62 g ai/ha, visual rating after 13 to 15 days
[12] = Flood (flooded paddy test), 125 g ai/ha, visual rating after 13 to 15 days
[13] = Flood (flooded paddy test), 250 g ai/ha, visual rating after 13 to 15 days
[14] = 125 g ai/ha, 0 to 100 scale, 0 is no effect, 100 is complete control
[15] = 500 g ai/ha, visual rating on 0 to 100 scale (0 no effect, 100 complete control), approximately ten days
[16] = 125 g ai/ha, 0 to 100 scale (0 no effect, 100 complete control)
[17] = 500 g ai/ha, 0 to 100 scale, 0 is no effect, 100 is complete control

Cc1nn(-c2ccc(C(F)(F)F)cc2)nc1C(=O)c1cccc(C(F)(F)F)c1 [Compound 45]
40: Velvetleaf plant response rating [6, 14] | Morningglory plant response rating [8, 14]
100: Pigweed plant response rating [9, 14] | Pigweed plant response rating [9, 15]
50: Foxtail, Giant plant response rating [7, 15] | Plant response rating, Foxtail, Giant [7, 16]
60: Crabgrass, Large plant response rating [3, 14] | Plant response rating, Foxtail, Giant [7, 17]
70: Crabgrass, Large plant response rating [3, 15] | Plant response rating, Crabgrass, Large [3, 16] | Plant response rating, Crabgrass, Large [3, 17] | Velvetleaf plant response rating [6, 15]
10: Barnyardgrass plant response rating [1, 14] | Barnyardgrass plant response rating [1, 15] | Plant response rating, Barnyardgrass [1, 17] | Plant response rating, Velvetleaf [6, 17] | Plant response rating, Morningglory [8, 17] | Plant response rating, Pigweed [9, 16] | Wheat plant response rating [10, 14] | Corn plant response rating (corn (Zea mays); [14])
0: Plant response rating, Rice (rice (Oryza sativa); [11]) | Plant response rating, Rice (rice (Oryza sativa); [12]) | Plant response rating, Rice (rice (Oryza sativa); [13]) | Plant response rating, Rice (rice (Oryza sativa); Flood, 31 g ai/ha) | Plant response rating, Barnyardgrass [1, 16] | Plant response rating, Ducksalad [2, 11] | Plant response rating, Ducksalad [2, 12] | Plant response rating, Ducksalad [2, 13] | Plant response rating, Ducksalad ([2]; Flood, 31 g ai/ha) | Plant response rating, Barnyardgrass [4, 11] | Plant response rating, Barnyardgrass [4, 12] | Plant response rating, Barnyardgrass [4, 13] | Plant response rating, Barnyardgrass ([4]; Flood, 31 g ai/ha) | Plant response rating, Sedge, Umbrella [5, 11] | Plant response rating, Sedge, Umbrella [5, 12] | Plant response rating, Sedge, Umbrella [5, 13] | Plant response rating, Sedge, Umbrella ([5]; Flood, 31 g ai/ha) | Plant response rating, Velvetleaf [6, 16] | Plant response rating, Morningglory [8, 16] | Plant response rating, Wheat [10, 16] | Plant response rating, Wheat [10, 17] | Plant response rating, Corn (corn (Zea mays); [16]) | Plant response rating, Corn (corn (Zea mays); [17])
20: Foxtail, Giant plant response rating [7, 14] | Plant response rating, Pigweed [9, 17] | Wheat plant response rating [10, 15] | Corn plant response rating (corn (Zea mays); [15])
80: Morningglory plant response rating [8, 15]

Cc1nn(-c2cccc(C(F)(F)F)c2)nc1Oc1ccnc(C(F)(F)F)c1 [Compound 40]
60: Plant response rating, Ducksalad [2, 12] | Foxtail, Giant plant response rating [7, 14]
100: Plant response rating, Crabgrass, Large [3, 16] | Plant response rating, Crabgrass, Large [3, 17] | Velvetleaf plant response rating [6, 15] | Plant response rating, Foxtail, Giant [7, 16] | Plant response rating, Foxtail, Giant [7, 17] | Morningglory plant response rating [8, 15] | Pigweed plant response rating [9, 14] | Pigweed plant response rating [9, 15] | Plant response rating, Pigweed [9, 17]
90: Crabgrass, Large plant response rating [3, 15] | Foxtail, Giant plant response rating [7, 15] | Plant response rating, Pigweed [9, 16]
10: Plant response rating, Rice (rice (Oryza sativa); [11]) | Plant response rating, Velvetleaf [6, 16] | Plant response rating, Morningglory [8, 17] | Corn plant response rating (corn (Zea mays); [14]) | Plant response rating, Corn (corn (Zea mays); [17])
80: Plant response rating, Barnyardgrass [1, 17] | Crabgrass, Large plant response rating [3, 14] | Plant response rating, Sedge, Umbrella [5, 12] | Plant response rating, Sedge, Umbrella [5, 13]
20: Plant response rating, Rice (rice (Oryza sativa); [12]) | Plant response rating, Barnyardgrass [4, 11] | Plant response rating, Barnyardgrass ([4]; Flood, 31 g ai/ha) | Plant response rating, Velvetleaf [6, 17] | Wheat plant response rating [10, 14] | Plant response rating, Wheat [10, 17]
70: Plant response rating, Ducksalad [2, 13] | Plant response rating, Sedge, Umbrella ([5]; Flood, 31 g ai/ha) | Velvetleaf plant response rating [6, 14] | Morningglory plant response rating [8, 14]
75: Plant response rating, Sedge, Umbrella [5, 11]
30: Barnyardgrass plant response rating [1, 14] | Plant response rating, Barnyardgrass [1, 16] | Plant response rating, Ducksalad [2, 11] | Plant response rating, Ducksalad ([2]; Flood, 31 g ai/ha) | Plant response rating, Barnyardgrass [4, 12] | Plant response rating, Barnyardgrass [4, 13] | Wheat plant response rating [10, 15] | Corn plant response rating (corn (Zea mays); [15])
0: Plant response rating, Rice (rice (Oryza sativa); Flood, 31 g ai/ha) | Plant response rating, Morningglory [8, 16] | Plant response rating, Wheat [10, 16] | Plant response rating, Corn (corn (Zea mays); [16])
25: Plant response rating, Rice (rice (Oryza sativa); [13])
40: Barnyardgrass plant response rating [1, 15]

Cc1nn(-c2ccc(I)cc2)nc1C(=O)c1cccc(C(F)(F)F)c1 [Compound 61]
80: Pigweed plant response rating [9, 15]
0: Plant response rating, Rice (rice (Oryza sativa); [11]) | Plant response rating, Rice (rice (Oryza sativa); [12]) | Plant response rating, Rice (rice (Oryza sativa); [13]) | Plant response rating, Rice (rice (Oryza sativa); Flood, 31 g ai/ha) | Barnyardgrass plant response rating [1, 14] | Plant response rating, Barnyardgrass [1, 16] | Plant response rating, Barnyardgrass [1, 17] | Plant response rating, Ducksalad [2, 11] | Plant response rating, Ducksalad [2, 12] | Plant response rating, Ducksalad [2, 13] | Plant response rating, Ducksalad ([2]; Flood, 31 g ai/ha) | Crabgrass, Large plant response rating [3, 14] | Plant response rating, Crabgrass, Large [3, 16] | Plant response rating, Barnyardgrass [4, 11] | Plant response rating, Barnyardgrass [4, 12] | Plant response rating, Barnyardgrass [4, 13] | Plant response rating, Barnyardgrass ([4]; Flood, 31 g ai/ha) | Plant response rating, Sedge, Umbrella [5, 11] | Plant response rating, Sedge, Umbrella [5, 12] | Plant response rating, Sedge, Umbrella [5, 13] | Plant response rating, Sedge, Umbrella ([5]; Flood, 31 g ai/ha) | Plant response rating, Velvetleaf [6, 16] | Plant response rating, Velvetleaf [6, 17] | Foxtail, Giant plant response rating [7, 14] | Plant response rating, Foxtail, Giant [7, 16] | Plant response rating, Morningglory [8, 16] | Plant response rating, Morningglory [8, 17] | Plant response rating, Pigweed [9, 16] | Wheat plant response rating [10, 14] | Wheat plant response rating [10, 15] | Plant response rating, Wheat [10, 16] | Plant response rating, Wheat [10, 17] | Plant response rating, Corn (corn (Zea mays); [16]) | Plant response rating, Corn (corn (Zea mays); [17])
10: Barnyardgrass plant response rating [1, 15] | Crabgrass, Large plant response rating [3, 15] | Plant response rating, Crabgrass, Large [3, 17] | Velvetleaf plant response rating [6, 14] | Foxtail, Giant plant response rating [7, 15] | Plant response rating, Foxtail, Giant [7, 17] | Morningglory plant response rating [8, 14] | Plant response rating, Pigweed [9, 17] | Corn plant response rating (corn (Zea mays); [14]) | Corn plant response rating (corn (Zea mays); [15])
40: Pigweed plant response rating [9, 14]
30: Velvetleaf plant response rating [6, 15] | Morningglory plant response rating [8, 15]

Cc1nn(-c2cccc(Cl)c2)nc1C(=O)c1cccc(C(F)(F)F)c1 [Compound 76]
10: Crabgrass, Large plant response rating [3, 14] | Plant response rating, Crabgrass, Large [3, 16] | Velvetleaf plant response rating [6, 15] | Foxtail, Giant plant response rating [7, 14] | Plant response rating, Foxtail, Giant [7, 16] | Morningglory plant response rating [8, 14] | Corn plant response rating (corn (Zea mays); [14])
0: Plant response rating, Rice (rice (Oryza sativa); [11]) | Plant response rating, Rice (rice (Oryza sativa); [12]) | Plant response rating, Rice (rice (Oryza sativa); [13]) | Plant response rating, Rice (rice (Oryza sativa); Flood, 31 g ai/ha) | Barnyardgrass plant response rating [1, 14] | Plant response rating, Barnyardgrass [1, 16] | Plant response rating, Barnyardgrass [1, 17] | Plant response rating, Ducksalad [2, 11] | Plant response rating, Ducksalad [2, 12] | Plant response rating, Ducksalad [2, 13] | Plant response rating, Ducksalad ([2]; Flood, 31 g ai/ha) | Plant response rating, Barnyardgrass [4, 11] | Plant response rating, Barnyardgrass [4, 12] | Plant response rating, Barnyardgrass [4, 13] | Plant response rating, Barnyardgrass ([4]; Flood, 31 g ai/ha) | Plant response rating, Sedge, Umbrella [5, 11] | Plant response rating, Sedge, Umbrella [5, 12] | Plant response rating, Sedge, Umbrella [5, 13] | Plant response rating, Sedge, Umbrella ([5]; Flood, 31 g ai/ha) | Velvetleaf plant response rating [6, 14] | Plant response rating, Velvetleaf [6, 16] | Plant response rating, Velvetleaf [6, 17] | Plant response rating, Morningglory [8, 16] | Plant response rating, Morningglory [8, 17] | Plant response rating, Pigweed [9, 16] | Wheat plant response rating [10, 14] | Plant response rating, Wheat [10, 16] | Plant response rating, Wheat [10, 17] | Plant response rating, Corn (corn (Zea mays); [16]) | Plant response rating, Corn (corn (Zea mays); [17])
30: Crabgrass, Large plant response rating [3, 15]
60: Pigweed plant response rating [9, 15]
20: Barnyardgrass plant response rating [1, 15] | Foxtail, Giant plant response rating [7, 15] | Morningglory plant response rating [8, 15] | Plant response rating, Pigweed [9, 17] | Wheat plant response rating [10, 15] | Corn plant response rating (corn (Zea mays); [15])
40: Plant response rating, Crabgrass, Large [3, 17]
80: Plant response rating, Foxtail, Giant [7, 17]
50: Pigweed plant response rating [9, 14]

From patent publication US9302999B2, “Substituted triazoles as herbicides” (E. I. DU PONT DE NEMOURS AND COMPANY, priority 2012, dated 2016)
